Reference: patent US20210147842A1, “METHODS AND COMPOSITIONS FOR INHIBITING NECROPTOSIS IN NEUROVASCULAR AND/OR NEURODEGENERATIVE DISEASES OR DISORDERS” (President and Fellows of Harvard College, priority 2019, published 2021)
Peptide text beside a SMILES is read from it. * marks the point of attachment. Cbz = O=C(OCc1ccccc1)*

Columns and labels:
Type in all cases: cell-based, mouse
A20 = A20 protein level and degradation in bEnd.3 cells (western blot, cycloheximide chase); conditions: for A20 protein levels in Nat1-KD cells: Nat1-KD bEnd.3 cells, chloroquine 10 uM, E64d 5 ug/ml, sodium acetate over 24 h
Method: (§1) Nat1-KD in bEnd.3 cells were conducted by lentivirus transfection with Nat1 shRNA. Ctrl group was transfected with lentivirus expressing scrambled shRNA. The efficiency of Nat-1 KD was confirmed by western blotting (WB). TNFα(100 ng/ml) was applied in Ctrl or Nat-KD cells for 24 h with or without Ripk1 inhibitor, Nec1s (10 uM). Cell death was quantified with SYTOX green staining. […] Using Tandem Mass Tag (TMT) isobaric labeling mass spectrometry (MS), we identified 7707 proteins in Nat1-KD and Ctrl bEND.3 cells. […] Nat1-KD or Ctrl bEnd.3 cells were treated with Flag-TNFα (50 ng/ml) as the indicated time course. Ripk1 activation was examined by the blotting of p-S166 Ripk1 for cell lysates.
Panels b and c show bEnd.3 cells treated with cycloheximide (CHX, 250 ug/ml) to investigate the degradation kinetics of A20. […] Panels e and f show Chloroquine (CQ, 10 uM) and E64d (5 ug/ml) applied for inhibiting lysosomal protein degradation.
(§2) Since A20 is an important suppressor of RIPK1 activation, RIPK1 activation and Complex I assembly were next assessed in Nat1-KD or Ctrl bEnd.3 cells treated with TNFα.
To understand the mechanism by which A20 is decreased in Nat1-KD cells, it was first assessed whether this alteration was occurring at the protein or mRNA level. […] Nat1-KD and Ctrl bEnd.3 cells were treated with cycloheximide to investigate the kinetics of A20 degradation.

Nat1 mRNA = Nat1 mRNA expression in bEnd.3 cells; conditions: for insulin-induced Nat1 mRNA up-regulation: applied half an hour prior to insulin, MK-2206 5 uM, rapamycin 250 nM, oligomeric Aβ1-42 100 nM
Text: FIG. 7: N-acetyltransferase 1 (Nat1) expression decreases in the brain ECs of AD. […] Fluorescence activated cell sorting (FACS) was used to isolate ECs (CD31^high and CD45^low) from single cell suspensions of brain tissues. The differentially expressed genes between APP/PS1 and WT groups were compared using edgeR and 116 genes were identified. […] Panels c and d show the expression of Nat1 protein (mouse)/Nat2 protein (human) in brain microvessels decreases during AD pathogenesis. Microvessels from mouse or human brains were isolated as described in Munikoti, et al. Journal of neuroscience methods 207, 80-85 (2012) and Boulay et al. Journal of visualized experiments: JoVE, e53208 (2015). […] Different concentrations of insulin were applied into the culture medium for 18 h. […] MK-2206(5 uM, Akt inhibitor), Repamycin (250 nM, mTOR inhibitor) or oligomeric Aβ1-42 (100 nM) was applied to the culture medium of bEnd.3 cells half an hour prior to the treatment of insulin.
To understand the mechanisms that mediate cerebral EC death and dysfunction in the pathogenesis of AD, fluorescence-activated cell sorting (FACS) was used to isolate ECs from the cerebrum of wild-type (WT) and APPswePSEN1dE9 (APP/PS1) mice (5-6 months of age). RNA sequencing (RNAseq) was used to profile gene expression between these groups, and differential gene expression was analyzed using edgeR (as described in Robinson, M. D., et al. Bioinformatics 26, 139-140 (2010)) (FIG. 7A). […] The decrease in Nat1 mRNA expression in cerebral ECs during AD pathogenesis was further confirmed by quantitative PCR (qPCR) (FIG. 7B). […] To validate the relevance of this finding in human AD pathogenesis, protein levels of NAT2 (the human homolog of mouse NAT1) in microvessels isolated from the brains of AD patients were assessed and compared to age-matched controls. […] To determine whether Nat1 expression might also be insulin-sensitive in immortalized mouse cerebral ECs (bEnd.3 cells), it was assessed whether increased concentrations of insulin could upregulate Nat1 (FIG. 7E).

bEnd.3 cells = assay: TNFα-induced cell death in bEnd.3 cells (SYTOX green); conditions: Nat1-KD bEnd.3 cells, TNFα 100 ng/ml; Nec1s 10 uM, 24 h; sodium acetate in culture medium
Method: Nat1-KD in bEnd.3 cells were conducted by lentivirus transfection with Nat1 shRNA. Ctrl group was transfected with lentivirus expressing scrambled shRNA. The efficiency of Nat-1 KD was confirmed by western blotting (WB). […] Cell death was quantified with SYTOX green staining. […] Ripk1 activation was examined by the blotting of p-S166 Ripk1 for cell lysates.
Mitochondria was stained with MitoTracker and imaged in live cells. […] For lysine acetylation, we first of all adjusted the protein concentrations to equalize A20 input in cell lysates of ctrl and Nat1-KD groups. Anti-acetylated lysine antibody was used for IP and anti-A20 antibody was used for WB.

[1] = test system: acetyl coenzyme A (acetyl-CoA); assay: Acetyl-CoA concentration in bEnd.3 cells; conditions: Nat1-KD bEnd.3 cells, sodium acetate over 24 h
Method: FIG. 9A-H: Decreased acetylation of A20 promotes the susceptibility of Nat-1 KD cells to TNFα induced cell death. […] Mitochondria was stained with MitoTracker and imaged in live cells. The scale bar represents 20 and 5 um, respectively. […] For N-terminal acetylation, subtiligase reaction as described in Yi et al. Cell 146, 607-620 (2011) was used. Biotin was added into the free N-terminal residue. […] For lysine acetylation, we first of all adjusted the protein concentrations to equalize A20 input in cell lysates of ctrl and Nat1-KD groups. Anti-acetylated lysine antibody was used for IP and anti-A20 antibody was used for WB. […] Nat1-KD bEnd.3 cells were treated with flag-TNFα (100 ng/ml) as the indicated time course. […]
Analysis of Nat1 knockout mice previously reported increased mitochondrial damage and fragmentation (Camporez, J. P. et al. Proceedings of the National Academy of Sciences of the United States of America 114, E11285-E11292 (2017)). […] Since Nat1 deficiency affects metabolism which may affect the cellular levels of acetyl-CoA, the concentration of total acetyl-CoA in Nat1-KD cells was determined. […] Further, supplementation with sodium acetate is also able to rescue the hyperactivation of RIPK1 in Nat1-KD cells in response to TNFα, as measured by RIPK1 ubiquitination (FIG. 9G). […]

RIPK1 = RIPK1 activation (p-S166, ubiquitination in complex I) in TNFα-treated bEnd.3 cells; conditions: Nat1-KD bEnd.3 cells, sodium acetate 100 mM, flag-TNFα 100 ng/ml
Method: as §1
Mitochondria was stained with MitoTracker and imaged in live cells. […] For N-terminal acetylation, subtiligase reaction as described in Yi et al. Cell 146, 607-620 (2011) was used. Biotin was added into the free N-terminal residue. […] For lysine acetylation, we first of all adjusted the protein concentrations to equalize A20 input in cell lysates of ctrl and Nat1-KD groups. Anti-acetylated lysine antibody was used for IP and anti-A20 antibody was used for WB. […]
as §2

Compound: CCOC(=O)[C@H]1O[C@@H]1C(=O)N[C@@H](CC(C)C)C(=O)NCCC(C)C [E64D]
- A20 protein levels in Nat1-KD cells (A20): rescued

Compound: CC(C)C[C@@H](C=O)NC(=O)[C@H](CC(C)C)NC(=O)[C@H](CC(C)C)NC(=O)OCc1ccccc1 [MG132] (Cbz-Leu-Leu-Leu-aldehyde)
- protein expression of A20 (A20; both Ctrl and Nat1-KD bEnd.3 cells, MG132 10 uM): reduced

Compound: NC1(c2ccc(-c3nc4ccn5c(=O)[nH]nc5c4cc3-c3ccccc3)cc2)CCC1 [MK-2206]
- insulin-induced Nat1 mRNA up-regulation (Nat1 mRNA): negated

Compound: CN1C(=O)NC(Cc2c[nH]c3c(Cl)cccc23)C1=O (centres unmarked) [Nec-1s]
- TNFα-induced cell death in Nat1-KD cells (bEnd.3 cells): rescued

Compound: CCN(CC)CCCC(C)Nc1ccnc2cc(Cl)ccc12 (centres unmarked) [chloroquine]
- A20 protein levels in Nat1-KD cells (A20): rescued

Compound: CC(=O)[O-].[Na+] [sodium acetate]
- TNFα-induced cell death in Nat1-KD cells (bEnd.3 cells): rescues
- A20 protein levels in Nat1-KD cells (A20): rescue
- acetyl-CoA in Nat1-KD cells [1]: rescue
- hyperactivation of RIPK1 in response to TNFα, as measured by RIPK1 ubiquitination (RIPK1): rescue

Compound: insulin: exogenous insulin applied into the culture medium
- Nat1 mRNA expression (Nat1 mRNA; different concentrations in culture medium, 18 h): increases

Compound: oligomeric Aβ1-42: oligomeric amyloid beta 1-42
- insulin-induced Nat1 mRNA up-regulation (Nat1 mRNA): blocked
